Laboratory results published in US11845742B2, “Therapeutic compounds and methods to treat infection” (priority 2017, dated 2023).
≈ marks a conversion by molar mass, not a printed value. Like-named read-outs stand apart in the source and are kept apart here.

Assays:
[1] = test system: E. coli ATCC 25922; assay: Intrinsic MIC assay (broth microdilution), E. coli; format: cell-based, Escherichia coli; conditions: Escherichia coli
Method: (§1) MIC assays were conducted in accordance with Clinical and Laboratory Standards Institute (CLSI) guidelines for broth microdilution.
(§2) The intrinsic MIC of the experimental EPIs was tested with the method described. The 2-fold serial dilution begins with 100 μg/mL of tested compound in the first column of the 96-well plates. The following Gram-negative bacterial strains were included in these assays: • Escherichia coli ATCC 25922 • Klebsiella pneumoniae ATCC 13883 and ATCC 10031 • Pseudomonas aeruginosa ATCC 27853. • Pseudomonas aeruginosa PAO1 • Acinetobacter baumannii ATCC 19606

[2] = test system: P. Aeruginosa PAO1; assay: MIC assay in the presence of a bacterial efflux pump inhibitor (EPI), P. aeruginosa PAO1; format: cell-based, Pseudomonas aeruginosa; conditions: in the presence of 12.5 μg/ml of N-(((2S,4R)-4-(aminomethyl)pyrrolidin-2-yl)methyl)-6-(4-fluorophenyl)-1H-indole-2-carboxamide
Method: The ability of a compound to produce an antibiotic effect can be determined using a method as described in Example 11. Data for representative compounds used in combination with the bacterial efflux pump inhibitor (EPI) N-(((2S,4R)-4-(aminomethyl)pyrrolidin-2-yl)methyl)-6-(4-fluorophenyl)-1H-indole-2-carboxamide is shown in Table 1.
as §1
The EPI assay for the purposes of these studies represents a MIC assay in which the MIC of the antibiotic against the bacteria is tested in the presence of an experimental efflux pump inhibitor (EPI). The highest concentration of the EPI present in the assay typically is ½ of the intrinsic MIC of the compound. […] Using serial dilutions of the EPI, its enhancement of antibiotic activity was then evaluated. The relative EPI activity was decided by comparing the MIC of the antibiotic in the presence of the EPI compound with the intrinsic MIC of the antibiotic alone. For comparative purposes, we generally used EPIs at concentration of 12.5 and 6.25 μg/ml against varying concentration of our test antibiotic.

[3] = test system: K. pneumoniae ATCC 10031; assay: Intrinsic MIC assay (broth microdilution), K. pneumoniae; format: cell-based, Klebsiella pneumoniae; conditions: Klebsiella pneumoniae
Method: as §1, §2

[4] = test system: P. Aeruginosa PAO1; assay: Intrinsic MIC assay (broth microdilution), P. aeruginosa PAO1; format: cell-based, Pseudomonas aeruginosa; conditions: for MIC: Pseudomonas aeruginosa, read-out: Intrinsic MIC; for Intrinsic MIC, second value printed in parentheses: not explained
Method: as §1, §2

[5] = test system: A. baumannii ATCC 19606; assay: Intrinsic MIC assay (broth microdilution), A. baumannii; format: cell-based, Acinetobacter baumannii; conditions: Acinetobacter baumannii
Method: as §1, §2

[6] = ATCC25922, E. coli ATCC 25922, read-out: Intrinsic MIC
[7] = ATCC10031, K. pneumoniae ATCC 10031, read-out: Intrinsic MIC
[8] = P. Aeruginosa PAO1, without EPI
[9] = ATCC19606, A. baumannii ATCC 19606, read-out: Intrinsic MIC
[10] = 18 h, P. Aeruginosa PAO1, without EPI
[11] = ATCC25922, read-out: Intrinsic MIC
[12] = ATCC10031, read-out: Intrinsic MIC
[13] = ATCC19606, read-out: Intrinsic MIC

MIC [1, 6] | MIC in the Presence of EPI* [2] | MIC [3, 7] | Intrinsic MIC [4, 8] | MIC [5, 9] | MIC [4, 10] | Intrinsic MIC, second value printed in parentheses [4, 8] | SMILES | MIC [1, 11] | MIC [3, 12] | MIC ([4]; PAO1, 18 h) | MIC [5, 13]
128 µg/mL (≈ 559 µM) | 16 µg/mL | 64 µg/mL (≈ 279 µM) | 256 µg/mL | 32 µg/mL (≈ 140 µM) | – | – | CC(N)c1cc2c(Cl)cc(Cl)cc2[nH]1 (stereo not shown) [Example 15, 1-(4,6-Dichloro-1H-indol-2-yl)ethan-1-amine] | – | – | – | –
256 µg/mL (≈ 958 µM) | 64 µg/mL | 256 µg/mL (≈ 958 µM) | – | 128 µg/mL (≈ 479 µM) | 256 µg/mL (≈ 958 µM) | – | CC(c1cc2cc(Br)ccc2[nH]1)N(C)C (stereo not shown) [Example 16, 1-(5-Bromo-1H-indol-2-yl)-N,N-dimethylethan-1-amine] | – | – | – | –
256 µg/mL (≈ 1300 µM) | 8 µg/mL | 128 µg/mL (≈ 652 µM) | 256 µg/mL | 128 µg/mL (≈ 652 µM) | – | – | CC(N)c1cc2cc(F)c(F)cc2[nH]1 (stereo not shown) [Example 17, 1-(5,6-Difluoro-1H-indol-2-yl)ethan-1-amine] | – | – | – | –
32 µg/mL (≈ 127 µM) | 2 µg/mL | 32 µg/mL (≈ 127 µM) | – | 64 µg/mL (≈ 255 µM) | 128 µg/mL (≈ 510 µM) | – | NC1CCc2c1[nH]c1ccc(Br)cc21 (stereo not shown) [Example 18, 7-Bromo-1,2,3,4-tetrahydrocyclopenta[b]indol-3-amine] | – | – | – | –
16 µg/mL (≈ 57.3 µM) | 4 µg/mL | 16 µg/mL (≈ 57.3 µM) | – | 16 µg/mL (≈ 57.3 µM) | 128 µg/mL (≈ 458 µM) | – | NC1CCCCc2c1[nH]c1ccc(Br)cc21 (stereo not shown) [Example 19, 2-Bromo-5,6,7,8,9,10-hexahydrocyclohepta[b]indol-6-amine] | – | – | – | –
16 µg/mL (≈ 66.4 µM) | 1 µg/mL | 8 µg/mL (≈ 33.2 µM) | 32 µg/mL | 8 µg/mL (≈ 33.2 µM) | – | – | NC1CCc2c1[nH]c1ccc(Cl)c(Cl)c21 (stereo not shown) [Example 22, 7,8-Dichloro-1,2,3,4-tetrahydrocyclopenta[b]indol-3-amine] | – | – | – | –
16 µg/mL (≈ 66.4 µM) | 8 µg/mL | 8 µg/mL (≈ 33.2 µM) | – | 16 µg/mL (≈ 66.4 µM) | 64 µg/mL (≈ 265 µM) | – | NC1CCc2c1[nH]c1cc(Cl)c(Cl)cc21 (stereo not shown) [Example 23, 6,7-Dichloro-1,2,3,4-tetrahydrocyclopenta[b]indol-3-amine] | – | – | – | –
– | – | 64 µg/mL (≈ 216 µM) | – | 256 µg/mL (≈ 864 µM) | 64 µg/mL (≈ 216 µM) | 128 µg/mL | CC(NCCCN)c1cc2cc(Br)ccc2[nH]1 (stereo not shown) [Example 24, N^1-(1-(5-Bromo-1H-indol-2-yl)ethyl)propane-1,3-diamine] | – | – | – | –
8 µg/mL (≈ 16.8 µM) | 16 µg/mL | 1 µg/mL (≈ 2.1 µM) | – | 16 µg/mL (≈ 33.7 µM) | > 256 µg/mL | – | CC(NCCCNC(=O)c1cc(Cl)c(Cl)s1)c1cc2cc(Br)ccc2[nH]1 (stereo not shown) [Example 25, N-(3-((1-(5-Bromo-1H-indol-2-yl)ethyl)amino)propyl)-4,5-dichlorothiophene-2-carboxamide] | – | – | – | –
64 µg/mL (≈ 151 µM) | 16 µg/mL | 16 µg/mL (≈ 37.7 µM) | – | 128 µg/mL (≈ 301 µM) | > 256 µg/mL | – | CC(NCCCNC(=O)c1ccc(Cl)o1)c1cc2cc(Br)ccc2[nH]1 (stereo not shown) [Example 26, N-(3-((1-(5-Bromo-1H-indol-2-yl)ethyl)amino)propyl)-5-chlorofuran-2-carboxamide] | – | – | – | –
– | 64 µg/mL | 8 µg/mL (≈ 18.1 µM) | – | – | 32 µg/mL (≈ 72.6 µM) | > 256 µg/mL | CC(NCCCNC(=O)c1ccc(Cl)s1)c1cc2cc(Br)ccc2[nH]1 (stereo not shown) [Example 27, N-(3-((1-(5-Bromo-1H-indol-2-yl)ethyl)amino)propyl)-5-chlorothiophene-2-carboxamide] | – | – | – | –
16 µg/mL (≈ 47.6 µM) | – | 8 µg/mL (≈ 23.8 µM) | – | 32 µg/mL (≈ 95.2 µM) | 64 µg/mL (≈ 190 µM) | 32 µg/mL | NCCCNC1CCCCc2c1[nH]c1ccc(Br)cc21 (stereo not shown) [Example 28, N^1-(2-Bromo-5,6,7,8,9,10-hexahydrocyclohepta[b]indol-6-yl)propane-1,3-diamine] | – | – | – | –
64 µg/mL (≈ 208 µM) | – | 32 µg/mL (≈ 104 µM) | – | 256 µg/mL (≈ 831 µM) | 64 µg/mL (≈ 208 µM) | 128 µg/mL | NCCCNC1CCc2c1[nH]c1ccc(Br)cc21 (stereo not shown) [Example 29, N^1-(7-Bromo-1,2,3,4-tetrahydrocyclopenta[b]indol-3-yl)propane-1,3-diamine] | – | – | – | –

SMILES | MIC [1, 6] | MIC in the Presence of EPI* [2] | MIC [3, 7] | Intrinsic MIC [4, 8] | MIC [5, 9] | MIC [4, 10] | Intrinsic MIC, second value printed in parentheses [4, 8] | MIC [1, 11] | MIC [3, 12] | MIC ([4]; PAO1, 18 h) | MIC [5, 13]
NC1CCCCc2c1[nH]c1ccc(Cl)c(Cl)c21 (stereo not shown) [Example 20, 1,2-Dichloro-5,6,7,8,9,10-hexahydrocyclohepta[b]indol-6-amine hydrochloric acid] | – | 1 µg/mL | – | – | – | – | – | 8 µg/mL (≈ 29.7 µM) | 2 µg/mL (≈ 7.43 µM) | 32 µg/mL (≈ 119 µM) | 8 µg/mL (≈ 29.7 µM)
NC1CCCCc2c1[nH]c1cc(Cl)c(Cl)cc21 (stereo not shown) [Example 21, 2,3-Dichloro-5,6,7,8,9,10-hexahydrocyclohepta[b]indol-6-amine hydrochloric acid] | – | 32 µg/mL | – | – | – | – | – | 16 µg/mL (≈ 59.4 µM) | 8 µg/mL (≈ 29.7 µM) | 256 µg/mL (≈ 951 µM) | 16 µg/mL (≈ 59.4 µM)
